{"source": "paper PMC11143257", "about": "“Atomistic mechanism of coupling between cytosolic sensor domain and selectivity filter in TREK K2P channels” (Nature Communications, 2024)", "key": {"[1]": {"molecular_target": "T1, WT TRAAK (Homo sapiens, UniProt Q9NYG8)", "T1 construct": "expressed in transfected cells; host or cells: Xenopus laevis oocytes (cRNA injection), excised inside-out patches", "T1 sequence (Q9NYG8 1-393)": "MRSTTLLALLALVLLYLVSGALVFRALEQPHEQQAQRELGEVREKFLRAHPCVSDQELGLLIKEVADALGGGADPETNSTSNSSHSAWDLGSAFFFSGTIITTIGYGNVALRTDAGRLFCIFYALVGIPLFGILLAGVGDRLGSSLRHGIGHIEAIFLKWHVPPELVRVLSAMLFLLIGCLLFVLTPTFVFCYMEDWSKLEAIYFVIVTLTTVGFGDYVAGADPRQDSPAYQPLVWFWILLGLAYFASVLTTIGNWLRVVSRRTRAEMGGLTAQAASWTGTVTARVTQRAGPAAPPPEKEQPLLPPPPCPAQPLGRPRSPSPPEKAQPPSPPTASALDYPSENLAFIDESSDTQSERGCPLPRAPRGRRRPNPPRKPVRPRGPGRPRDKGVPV", "assay": "MTS probe modification, inside-out patch-clamp", "assay_type": "cell-based", "conditions": "100 µM decyl-MTS for at least 30 s, symmetrical K+, pH 7.4, +40 mV", "description": "(§1) First, we measured WT TREK-1, WT TRAAK and TREK-2^* channels without modifiable cysteine residues as references. Upon application of 100 µM of decyl-MTS for at least 30 s to the respective channel in excised membrane patches, no change in current amplitudes was recognized (Fig. 2a and Supplementary Fig. 2a, b). Note, that patch integrity and channel regulation were tested with either 1 mM tetra-pentyl-ammonium (TPenA) and a short pHi activation step. Next, we conducted systematic cysteine scanning mutagenesis of the entire pCt and examined the effect of charged and aliphatic MTS probes. […] Remarkably, all hit residues face toward the inner leaflet of the lipid bilayer (Fig. 2b, inlay).\n(§2) Xenopus laevis oocytes were surgically removed from anesthetized adult females, treated with type II collagenase (Sigma-Aldrich/Merck, Germany) and manually defolliculated. […] Currents were recorded with an EPC10 amplifier (HEKA electronics, Germany) and sampled at 10 kHz or higher and filtered with 3 kHz (-3 dB) or higher as appropriate for the sampling rate. […]\nThe fold current increase (fold activation) of a ligand (decyl-MTS) was calculated from the following equation:1 FoldactivationFA=Iactivated/Ibasal with Iactivated represents the stable current level in the presence of 100 µM decyl-MTS and Ibasal the measured current before application of the MTS probe."}, "[2]": {"molecular_target": "T2, TREK-2* (Homo sapiens, UniProt P57789)", "T2 sequence (P57789 67-355 isoform P57789-4)": "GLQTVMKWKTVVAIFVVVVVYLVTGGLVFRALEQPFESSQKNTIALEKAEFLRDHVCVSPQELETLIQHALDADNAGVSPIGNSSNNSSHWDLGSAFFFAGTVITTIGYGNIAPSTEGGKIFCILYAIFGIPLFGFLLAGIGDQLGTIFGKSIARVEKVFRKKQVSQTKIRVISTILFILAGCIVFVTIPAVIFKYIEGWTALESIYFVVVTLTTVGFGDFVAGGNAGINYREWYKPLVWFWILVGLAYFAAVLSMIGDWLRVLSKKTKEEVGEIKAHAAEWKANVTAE", "assay": "MTS probe modification, inside-out patch-clamp", "assay_type": "cell-based", "parameters": "was truncated from WT and includes amino acids 67 - 355; expressed in transfected cells; host or cells: Xenopus laevis oocytes (cRNA injection), excised inside-out patches", "conditions": "100 µM decyl-MTS for at least 30 s, symmetrical K+, pH 7.4, +40 mV", "description": "as §1\nIn this study, the coding sequences of human K2P2.1 TREK-1 (Genbank accession number: NM_172042), rat K2P2.1 TREK-1 (NM_172041.2), human K2P10.1 TREK-2 (NM_021161) and human K2P4.1 TRAAK (AF247042) were used. […]\nas §2"}}, "note": "“Also recorded” adds a separate entry of the source.", "data": [{"smiles": "CCCCCCCCCCSS(C)(=O)=O", "note": "[decyl-MTS, Decyl-MethaneThioSulfonate]", "values": [{"measurement": "effect on current amplitude", "setting": "[1]", "value": "no change; also recorded: no effect"}, {"measurement": "effect on current amplitude", "setting": "[2]", "value": "no change; also recorded: no effect"}]}]}
